ChEMBL document CHEMBL1201862, “PubChem BioAssay data set” (2004)
The source made the active and inactive calls.

What was measured:
Format in all cases: functional
[1] = intracellular Trypanosoma cruzi inhibitors in host cells – cell-based, plate reader, cherry-pick samples, set 3, dose response (AID 651818);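 note: compounds incubated with infected cells for about four days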
[2] = biological target: T1, Tyrosine-protein phosphatase non-receptor type 11 (Homo sapiens, UniProt Q06124); assay: PTPN11 enzyme inhibitors – biochemical, selectivity assay for STEP inhibitor project, dose response (AID 602367); conditions: read-out: IC50_Mean
T1 sequence (Q06124 whole entry): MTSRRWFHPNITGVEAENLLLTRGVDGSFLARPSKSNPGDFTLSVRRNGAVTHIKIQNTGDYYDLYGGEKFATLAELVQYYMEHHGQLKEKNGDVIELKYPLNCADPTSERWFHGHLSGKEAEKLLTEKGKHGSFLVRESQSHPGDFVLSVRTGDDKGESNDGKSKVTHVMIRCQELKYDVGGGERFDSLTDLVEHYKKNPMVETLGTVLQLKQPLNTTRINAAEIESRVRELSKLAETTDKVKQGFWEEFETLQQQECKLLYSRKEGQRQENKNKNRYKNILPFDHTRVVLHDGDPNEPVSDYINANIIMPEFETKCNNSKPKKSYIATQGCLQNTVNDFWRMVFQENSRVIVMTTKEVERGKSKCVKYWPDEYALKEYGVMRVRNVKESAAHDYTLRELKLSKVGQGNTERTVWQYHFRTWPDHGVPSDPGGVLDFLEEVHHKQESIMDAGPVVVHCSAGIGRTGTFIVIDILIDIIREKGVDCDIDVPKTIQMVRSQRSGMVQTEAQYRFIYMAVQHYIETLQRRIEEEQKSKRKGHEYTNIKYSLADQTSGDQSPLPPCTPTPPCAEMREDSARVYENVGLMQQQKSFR

[3] = biological target: T2, Tyrosine-protein phosphatase non-receptor type 5 (Homo sapiens, UniProt P54829); assay: PTPN5 enzyme inhibition – biochemical, fluorescence intensity, uHTS hits, confirmation (AID 602372); conditions: read-out: IC50_Mean
T2 sequence (P54829 whole entry): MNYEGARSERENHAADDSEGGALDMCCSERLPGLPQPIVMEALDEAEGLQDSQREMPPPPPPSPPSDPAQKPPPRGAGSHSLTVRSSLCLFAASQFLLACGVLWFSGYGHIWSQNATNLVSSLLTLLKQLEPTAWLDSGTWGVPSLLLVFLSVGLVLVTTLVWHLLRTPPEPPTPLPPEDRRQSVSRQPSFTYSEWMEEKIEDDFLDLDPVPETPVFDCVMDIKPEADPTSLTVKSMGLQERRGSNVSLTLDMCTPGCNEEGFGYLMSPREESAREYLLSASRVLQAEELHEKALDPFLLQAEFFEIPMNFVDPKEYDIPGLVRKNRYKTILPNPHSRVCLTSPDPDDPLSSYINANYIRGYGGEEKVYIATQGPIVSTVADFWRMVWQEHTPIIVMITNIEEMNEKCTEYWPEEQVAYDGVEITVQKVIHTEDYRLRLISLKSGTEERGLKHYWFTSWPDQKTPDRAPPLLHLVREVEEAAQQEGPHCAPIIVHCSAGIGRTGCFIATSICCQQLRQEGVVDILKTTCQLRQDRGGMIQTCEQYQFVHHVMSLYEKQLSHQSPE

[4] = biological target: Dual specificity protein phosphatase 3 (Homo sapiens, UniProt P51452); assay: VHR phosphatase inhibition, dose response, selectivity assay for STEP inhibitor project, biochemical (AID 602374); conditions: read-out: IC50_Mean
Chain of Dual specificity protein phosphatase 3 (P51452 whole entry): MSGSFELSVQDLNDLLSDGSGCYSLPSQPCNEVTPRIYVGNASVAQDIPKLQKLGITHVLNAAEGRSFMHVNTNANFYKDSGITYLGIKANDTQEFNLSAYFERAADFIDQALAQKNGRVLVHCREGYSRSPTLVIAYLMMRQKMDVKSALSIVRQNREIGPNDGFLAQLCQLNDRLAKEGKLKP

Row | IC50 [2] | IC50 [3] | IC50 [4] | Compound | AC50 [1]
1 | – | – | – | C[C@@H]1CN([C@H](C)CO)C(=O)c2cccc(NC(=O)c3nc4ccccc4s3)c2O[C@H]1CN(C)S(=O)(=O)c1ccc(Cl)cc1 | 0.964 µM (active)
2 | – | – | – | C[C@H]1CN([C@@H](C)CO)C(=O)Cc2cc(NC(=O)Nc3cccc4ccccc34)ccc2O[C@@H]1CN(C)CC1CCCCC1 | 4.35 µM (active)
3 | 3.1 µM (active) | 16.5 µM (active) | 0.997 µM (active) | Cc1ccc(C(=S)N2CCN(Cc3ccccc3)CC2)s1 | –
